Reference: patent US8648111B2, “N1-2-thiophene-2-ylethyl-N2-substituted biguanide derivate, preparation method thereof, and pharmaceutical composition containing the same as active ingredients” (Hanall Biopharma Co., Ltd., priority 2008, dated 2014)
Where two headings read alike, the source gives them in different places.

Tests used:
Assay type in all cases: cell-based
[1] = test system: HepG2 cells; test: Measurement of cholesterol synthesis inhibitory ability (cholesterol content in cell lysates, Amplex red)
[2] = test system: HepG2 cells; test: Measurement of triglyceride (triglyceride content in cell lysates, Amplex red)
[3] = test system: HepG2 cells; test: Measurement of gluconeogenesis inhibitory ability (14C-lactate, glucose formed in cells)
[4] = test system: C2C12 cells; test: Measurement of glucose absorption ability (3H-deoxy-glucose uptake with insulin); conditions: 100 uM compound with 1 μM insulin, 24 hours, differentiated C2C12, higher value = stronger, more than 200% counts as glucose absorption ability
[5] = 100 uM compound, 24 hours, HepG2, lower value = stronger cholesterol synthesis inhibition
[6] = 500 uM compound, 24 hours, HepG2, lower value = stronger cholesterol synthesis inhibition
[7] = 100 uM compound, 24 hours, HepG2, lower value = stronger triglyceride synthesis inhibition
[8] = 500 uM compound, 24 hours, HepG2, lower value = stronger triglyceride synthesis inhibition
[9] = 100 uM compound, 24 hours, HepG2, lower value = stronger gluconeogenesis inhibition

Compound	Cholesterol (100 uM) Aver. [1, 5]	Cholesterol (500 uM) Aver. [1, 6]	Triglyceride (100 uM) Aver. [2, 7]	Triglyceride (500 uM) Aver. [2, 8]	Gluconeogenesis inhibition (100 uM) Aver. [3, 9]	Glucose absorption (100 uM) Aver. [4] [%]	Cholesterol (100 uM) Aver. ([1]; 100 uM compound, 24 hours, HepG2, lower value = stronger cholesterol synthesis inhibition, hydrochloride)	Cholesterol (500 uM) Aver. ([1]; 500 uM compound, 24 hours, HepG2, lower value = stronger cholesterol synthesis inhibition, hydrochloride)	Triglyceride (100 uM) Aver. ([2]; 100 uM compound, 24 hours, HepG2, lower value = stronger triglyceride synthesis inhibition, hydrochloride)	Triglyceride (500 uM) Aver. ([2]; 500 uM compound, 24 hours, HepG2, lower value = stronger triglyceride synthesis inhibition, hydrochloride)	Gluconeogenesis inhibition (100 uM) Aver. ([3]; 100 uM compound, 24 hours, HepG2, lower value = stronger gluconeogenesis inhibition, hydrochloride, 100 µM)	Glucose absorption (100 uM) Aver. ([4]; hydrochloride) [%]	Cholesterol (100 uM) Aver. [1]	Cholesterol (500 uM) Aver. [1]	Triglyceride (100 uM) Aver. [2]	Triglyceride (500 uM) Aver. [2]	Gluconeogenesis inhibition (100 uM) Aver. [3]
COc1cc(N=C(NCCc2cccs2)NC(=N)N)cc(OC)c1OC.Cl [Example 17, N1-2-(thiophen-2-ylethyl)-N2-(3,4,5-trimethoxy)phenyl biguanide hydrochloride]	87.2	57.5	86.2	79.4	95.56	165.2											
CCCCCN=C(NCCc1cccs1)NC(=N)N.Cl [Example 23, N1-2-(thiophen-2-ylethyl)-N2-pentyl biguanide hydrochloride]	11.05	15.66	13.83	17.16	2.96	0.00											
Cl.N=C(N)NC(=Nc1cc(Cl)cc(Cl)c1)NCCc1cccs1 [Example 39, N1-2-(thiophen-2-ylethyl)-N2-(3,5-dichlorophenyl) biguanide hydrochloride]	69.65	61.03	73.50	72.66	13.04	188.26											
N1-2-(thiophen-2-ylethyl)-N2-t-butyl biguanide hydrochloride [Example 7]	42.51	2.79	74.43	16.49	39.98	21.59											
COc1ccc(OC)c(N=C(NCCc2cccs2)NC(=N)N)c1.Cl [Example 31, N1-2-(thiophen-2-ylethyl)-N2-(2,5-dimethoxyphenyl) biguanide hydrochloride]							75.67	49.39	81.74	57.32	96.29	168.20					
Cl.N=C(N)NC(=NCc1ccccc1)NCCc1cccs1 [Example 8, N1-2-(thiophen-2-ylethyl)-N2-t-benzyl biguanide hydrochloride]	37.77	7.28	77.65	30.78	81.27	243.3											
CCc1ccccc1N=C(NCCc1cccs1)NC(=N)N.Cl [Example 9, N1-2-(thiophen-2-ylethyl)-N2-2-ethylphenyl biguanide hydrochloride]	39.25	7.55	74.99	19.51	74.23	252.6											
Cl.N=C(N)NC(=Nc1ccc(-c2ccccc2)cc1)NCCc1cccs1 [Example 35, N1-2-(thiophen-2-ylethyl)-N2-(4-phenylphenyl) biguanide hydrochloride]	28.27	30.49	18.94	14.92	109.62	35.00											
C=CCN=C(NCCc1cccs1)NC(=N)N.Cl [Example 44, N1-2-(thiophen-2-ylethyl)-N2-allyl biguanide hydrochloride]						87.78							85.73	82.40	96.99	74.60	77.80
Cc1ccc(N=C(NCCc2cccs2)NC(=N)N)cc1.Cl [Example 19, N1-2-(thiophen-2-ylethyl)-N2-(4-methylphenyl) biguanide hydrochloride]	52.9	29.6	67.7	46.4	74.32	89.16											
CN=C(NCCc1sccc1C)NC(=N)N.Cl [Example 45, N1-2-(3-methylthiophen-2-ylethyl)-N2-methyl biguanide hydrochloride]	77.03	63.78	92.38	89.00	94.51	264.76											
